Measurements taken from patent US20240391875A1, “ISOQUINOLINONES AND QUINOLINONES AS MODULATORS OF POLRMT” (Pretzel Therapeutics, Inc., priority 2021, published 2024).

Target: POLRMT (Homo sapiens, UniProt O00411)
Assay: homogeneous TR-FRET assay of mitochondrial transcription (inhibition of POLRMT)
Format: biochemical
Details: isoquinolinone compounds (Table 1)
Summary of the method: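 Recombinant POLRMT (7.5 nM) with TFB2M, TFAM and linearized LSP plasmid template, 500 μM NTPs, pH 7.5 Mg buffer; 60 min at 37° C. Reaction stopped with EDTA/high-salt buffer, 407 bp RNA transcript detected by hybridized ATTO647/Europium-cryptate probe pair; TR-FRET 665/620 nm ratio taken as transcript yield.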

Sequence of POLRMT (O00411 42-1230): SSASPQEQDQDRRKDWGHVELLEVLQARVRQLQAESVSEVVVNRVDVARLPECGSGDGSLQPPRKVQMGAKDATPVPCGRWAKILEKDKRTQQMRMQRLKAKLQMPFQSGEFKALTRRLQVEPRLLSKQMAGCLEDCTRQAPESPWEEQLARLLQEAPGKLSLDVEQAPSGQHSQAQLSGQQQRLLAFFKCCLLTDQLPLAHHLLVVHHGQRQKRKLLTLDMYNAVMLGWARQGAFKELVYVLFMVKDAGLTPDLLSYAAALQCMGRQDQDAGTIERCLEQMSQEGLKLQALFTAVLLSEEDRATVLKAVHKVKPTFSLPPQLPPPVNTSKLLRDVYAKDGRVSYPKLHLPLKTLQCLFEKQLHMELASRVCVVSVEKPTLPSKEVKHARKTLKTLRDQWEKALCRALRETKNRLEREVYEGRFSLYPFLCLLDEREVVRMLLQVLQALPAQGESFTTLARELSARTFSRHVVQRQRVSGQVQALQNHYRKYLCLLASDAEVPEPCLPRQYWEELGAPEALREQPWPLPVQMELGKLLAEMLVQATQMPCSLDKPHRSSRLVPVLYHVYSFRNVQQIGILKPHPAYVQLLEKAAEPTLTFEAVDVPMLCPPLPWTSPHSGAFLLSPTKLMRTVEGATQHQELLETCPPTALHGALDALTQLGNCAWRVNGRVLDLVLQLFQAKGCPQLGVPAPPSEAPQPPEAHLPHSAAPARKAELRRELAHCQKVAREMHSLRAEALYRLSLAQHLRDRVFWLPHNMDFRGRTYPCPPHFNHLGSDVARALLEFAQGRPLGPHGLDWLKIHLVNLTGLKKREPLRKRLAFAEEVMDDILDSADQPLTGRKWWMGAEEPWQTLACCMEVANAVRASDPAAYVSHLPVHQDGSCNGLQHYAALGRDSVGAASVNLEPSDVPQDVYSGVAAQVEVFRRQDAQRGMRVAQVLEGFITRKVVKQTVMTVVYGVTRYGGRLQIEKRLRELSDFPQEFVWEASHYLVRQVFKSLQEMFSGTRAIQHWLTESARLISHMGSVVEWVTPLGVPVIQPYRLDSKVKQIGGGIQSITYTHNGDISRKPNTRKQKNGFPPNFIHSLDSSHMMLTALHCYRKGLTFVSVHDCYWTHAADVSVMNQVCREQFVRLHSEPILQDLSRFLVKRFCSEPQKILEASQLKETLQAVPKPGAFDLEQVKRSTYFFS

| IC50 | SMILES |
| --- | --- |
| 13000 nM | COCC(Oc1ccc2c(-c3ccccc3C)c[nH]c(=O)c2c1)C(N)=O (single isomer, unassigned) [Example 53] |
| 30 nM | C[C@@H](Oc1ccc2c(-c3ccc(F)cc3Cl)c[nH]c(=O)c2c1)C(=O)N1C2CCCC1CC2 [Example 93, 7-(((2R)-1-(8-azabicyclo[3.2.1]octan-8-yl)-1-oxopropan-2-yl)oxy)-4-(2-chloro-4-fluorophenyl)isoquinolin-1(2H)-one] |
| 11000 nM | Cc1ccccc1-c1c[nH]c(=O)c2cc(NC(C)C(=O)N(C)C)ccc12 (stereo not shown) [Example 47] |
| > 100000 nM | Cc1ccccc1-c1c[nH]c(=O)c2cc(OCCN(C)C)ccc12 [Example 10, 7-(2-(dimethylamino)ethoxy)-4-(o-tolyl)isoquinolin-1(2H)-one] |
| > 100000 nM | COCC(Oc1ccc2c(-c3ccccc3C)c[nH]c(=O)c2c1)C(=O)N(C)C (single isomer, unassigned) [Example 54] |
| 300 nM | C[C@@H](Oc1ccc2c(-c3ccc(F)cc3Cl)c[nH]c(=O)c2c1)C(=O)N1CCO[C@@H](C(=O)O)C1 [Example 120, (R)-4-((R)-2-((4-(2-chloro-4-fluorophenyl)-1-oxo-1,2-dihydroisoquinolin-7-yl)oxy)propanoyl)morpholine-2-carboxylic acid] |
| 400 nM | Cc1ccccc1-c1c[nH]c(=O)c2cc(OC(C)C)ccc12 [Example 4, 7-isopropoxy-4-(o-tolyl)isoquinolin-1(2H)-one] |
| 1000 nM | C[C@@H](Oc1ccc2c(-c3ccc(F)cc3Cl)c[nH]c(=O)c2c1)C(=O)N1CCO[C@@H](CO)C1 [Example 104, 4-(2-chloro-4-fluorophenyl)-7-(((R)-1-((R)-2-(hydroxymethyl)morpholino)-1-oxopropan-2-yl)oxy)isoquinolin-1(2H)-one] |
| > 100000 nM | CC(=O)N1CCC(C(=O)Nc2ccc3c(-c4ccccc4C)c[nH]c(=O)c3c2)CC1 [Example 33, 1-acetyl-N-(1-oxo-4-(o-tolyl)-1,2-dihydroisoquinolin-7-yl)piperidine-4-carboxamide] |
| 8000 nM | Cc1ccccc1-c1c[nH]c(=O)c2cc(NCC(N)=O)ccc12 [Example 70, 2-((1-oxo-4-(o-tolyl)-1,2-dihydroisoquinolin-7-yl)amino)acetamide] |
| 20 nM | Cc1ccccc1-c1c[nH]c(=O)c2cc(O[C@H](C)C(=O)N3C4CCC3COC4)ccc12 [Example 85, 7-(((2R)-1-(3-oxa-8-azabicyclo[3.2.1]octan-8-yl)-1-oxopropan-2-yl)oxy)-4-(o-tolyl)isoquinolin-1(2H)-one] |
| 2000 nM | COCc1ccc2c(-c3ccccc3C)c[nH]c(=O)c2c1 [Example 44, 7-(methoxymethyl)-4-(o-tolyl)isoquinolin-1(2H)-one] |
| 40 nM | Cc1ccccc1-c1c[nH]c(=O)c2cc(O[C@H](C)C(=O)N3CCC(F)(F)CC3)ccc12 [Example 80, (R)-7-((1-(4,4-difluoropiperidin-1-yl)-1-oxopropan-2-yl)oxy)-4-(o-tolyl)isoquinolin-1(2H)-one] |
| 600 nM | CC(C#N)Oc1ccc2c(-c3ccc(F)cc3Cl)c[nH]c(=O)c2c1 (single isomer, unassigned) [Example 50, 2-((4-(2-chloro-4-fluorophenyl)-1-oxo-1,2-dihydroisoquinolin-7-yl)oxy)propanenitrile] |
| > 100000 nM | Cc1ccccc1-c1c[nH]c(=O)c2cc(C(=O)N3CCCC3)ccc12 [Example 19, 7-(pyrrolidine-1-carbonyl)-4-(o-tolyl)isoquinolin-1(2H)-one] |
| > 100000 nM | Cc1ccccc1-c1c[nH]c(=O)c2cc(CN)ccc12 [Example 38, 7-(aminomethyl)-4-(o-tolyl)isoquinolin-1(2H)-one] |
| 4000 nM | COCC(C#N)Oc1ccc2c(-c3ccccc3C)c[nH]c(=O)c2c1 (single isomer, unassigned) [Example 75, 3-methoxy-2-((1-oxo-4-(o-tolyl)-1,2-dihydroisoquinolin-7-yl)oxy)propanenitrile] |
| 400 nM | C[C@@H](Oc1ccc2c(-c3ccc(F)cc3Cl)c[nH]c(=O)c2c1)C(=O)N1CCO[C@H](C(N)=O)C1 [Example 132, (S)-4-((R)-2-((4-(2-chloro-4-fluorophenyl)-1-oxo-1,2-dihydroisoquinolin-7-yl)oxy)propanoyl)morpholine-2-carboxamide] |

| IC50 | SMILES |
| --- | --- |
| 90 nM | C[C@@H](Oc1ccc2c(-c3ccc(F)cc3Cl)c[nH]c(=O)c2c1)C(=O)N1CCC[C@H](C(N)=O)C1 [Example 82, (S)-1-((R)-2-((4-(2-chloro-4-fluorophenyl)-1-oxo-1,2-dihydroisoquinolin-7-yl)oxy)propanoyl)piperidine-3-carboxamide] |
| 700 nM | COC[C@H]1COCCN1C(=O)[C@@H](C)Oc1ccc2c(-c3ccc(F)cc3Cl)c[nH]c(=O)c2c1 [Example 103, 4-(2-chloro-4-fluorophenyl)-7-(((R)-1-((S)-3-(methoxymethyl)morpholino)-1-oxopropan-2-yl)oxy)isoquinolin-1(2H)-one] |
| 600 nM | C[C@@H](Oc1ccc2c(-c3ccc(F)cc3Cl)c[nH]c(=O)c2c1)C(=O)N1CCOC[C@H]1CO [Example 113, 4-(2-chloro-4-fluorophenyl)-7-(((R)-1-((R)-3-(hydroxymethyl)morpholino)-1-oxopropan-2-yl)oxy)isoquinolin-1(2H)-one] |
| > 100000 nM | COCC(Oc1ccc2c(-c3ccccc3C)c[nH]c(=O)c2c1)C(N)=O (single isomer, unassigned) [Example 52] |
| 200 nM | C[C@H]1CN(C(=O)[C@@H](C)Oc2ccc3c(-c4ccc(F)cc4Cl)c[nH]c(=O)c3c2)C[C@H](C)O1 (single isomer, unassigned) [Example 125] |
| 50 nM | C[C@@H](Oc1ccc2c(-c3ccc(F)cc3Cl)c[nH]c(=O)c2c1)C(=O)N1CCC(C(=O)O)CC1 [Example 64, (R)-1-(2-((4-(2-chloro-4-fluorophenyl)-1-oxo-1,2-dihydroisoquinolin-7-yl)oxy)propanoyl)piperidine-4-carboxylic acid] |
| 7000 nM | Cc1cc(F)cc(C)c1-c1c[nH]c(=O)c2cc(OCC(N)=O)ccc12 [Example 109, 2-((4-(4-fluoro-2,6-dimethylphenyl)-1-oxo-1,2-dihydroisoquinolin-7-yl)oxy)acetamide] |
| 36000 nM | CNC(=O)[C@H](C)Oc1ccc2c(-c3ccccc3C)c[nH]c(=O)c2c1 [Example 28, (S)—N-methyl-2-((1-oxo-4-(o-tolyl)-1,2-dihydroisoquinolin-7-yl)oxy)propenamide] |
| 500 nM | C[C@H]1CN(C(=O)[C@@H](C)Oc2ccc3c(-c4ccc(F)cc4Cl)c[nH]c(=O)c3c2)C[C@H](C)O1 (single isomer, unassigned) [Example 124] |
| 400 nM | C[C@@H](Oc1ccc2c(-c3ccc(F)cc3Cl)c[nH]c(=O)c2c1)C(=O)N1CCOC[C@@H]1C(=O)O [Example 115, (R)-4-((R)-2-((4-(2-chloro-4-fluorophenyl)-1-oxo-1,2-dihydroisoquinolin-7-yl)oxy)propanoyl)morpholine-3-carboxylic acid] |
| 2000 nM | C[C@@H](Oc1ccc2c(-c3ccc(F)cc3Cl)c[nH]c(=O)c2c1)C(=O)N1CCS(=O)(=O)CC1 [Example 101, (R)-4-(2-chloro-4-fluorophenyl)-7-((1-(1,1-dioxidothiomorpholino)-1-oxopropan-2-yl)oxy)isoquinolin-1(2H)-one] |
| 1000 nM | CCOC(=O)C(C)Cc1ccc2c(-c3ccccc3C)c[nH]c(=O)c2c1 (stereo not shown) [Example 40, ethyl 2-methyl-3-(1-oxo-4-(o-tolyl)-1,2-dihydroisoquinolin-7-yl)propanoate] |
| 30 nM | Cc1ccccc1-c1c[nH]c(=O)c2cc(O[C@H](C)C(=O)N3CCC[C@H](C#N)C3)ccc12 [Example 77, (S)-1-((R)-2-((1-oxo-4-(o-tolyl)-1,2-dihydroisoquinolin-7-yl)oxy)propanoyl)piperidine-3-carbonitrile] |
| 12000 nM | CCc1ccccc1-c1c[nH]c(=O)c2cc(OCC(N)=O)ccc12 [Example 138, 2-((4-(2-ethylphenyl)-1-oxo-1,2-dihydroisoquinolin-7-yl)oxy)acetamide] |
| > 100000 nM | O=c1[nH]cc(-c2ccc(F)cc2Cl)c2ccc(O)cc12 [Example 2, 4-(2-chloro-4-fluorophenyl)-7-hydroxyisoquinolin-1(2H)-one] |
| 30 nM | Cc1ccccc1-c1c[nH]c(=O)c2cc(OCC(F)(F)F)ccc12 [Example 65, 4-(o-tolyl)-7-(2,2,2-trifluoroethoxy)isoquinolin-1(2H)-one] |
| 50 nM | Cc1ccccc1-c1c[nH]c(=O)c2cc(O[C@H](C)C(=O)N3CCC(C(=O)O)CC3)ccc12 [Example 24, (R)-1-(2-((1-oxo-4-(o-tolyl)-1,2-dihydroisoquinolin-7-yl)oxy)propanoyl)piperidine-4-carboxylic acid] |

Same assay, conditions: quinolinone compounds (Table 2)

| IC50 | SMILES |
| --- | --- |
| 3000 nM | Cc1ccccc1-c1cc(=O)[nH]c2cc(O[C@H](C)C(=O)O)ccc12 [Example Q13, (R)-2-((2-oxo-4-(o-tolyl)-1,2-dihydroquinolin-7-yl)oxy)propanoic acid] |
| 4000 nM | Cc1cc(F)ccc1-c1cc(=O)[nH]c2cc(OC(C)C)ccc12 [Example Q3, 4-(4-fluoro-2-methylphenyl)-7-isopropoxy-1H-quinolin-2-one] |
| 7000 nM | Cc1ccccc1-c1cc(=O)[nH]c2cc(O[C@H](C)C(=O)N3CCC[C@H](C(=O)O)C3)ccc12 [Example Q15, (S)-1-((R)-2-((2-oxo-4-(o-tolyl)-1,2-dihydroquinolin-7-yl)oxy)propanoyl)piperidine-3-carboxylic acid] |
| > 100000 nM | Cc1ccccc1-c1cc(=O)[nH]c2cc(O[C@@H](C)C(=O)N(C)C)ccc12 (single isomer, unassigned) [Example Q8] |
| > 100000 nM | COc1ccc2c(-c3ccc(F)cc3Cl)cc(=O)[nH]c2c1 [Example Q1, 4-(2-chloro-4-fluorophenyl)-7-methoxyquinolin-2(1H)-one] |
